One series relates to dp-ucMGP. Particulars: vitamin K supplementation; cited from earlier work.
Series [1] concerns Covid-19. The experiment in a line: Cohort of hospitalized COVID-19 patients treated with vitamin K, compared with previous COVID-19 cohorts. It is filed as in vivo. The conditions noted are these: hospitalized COVID-19 cohort treated with vitamin K vs previous COVID-19 cohorts from the same hospital. The source says:
(§1) Procoagulant prothrombin activation by vitamin K remained preserved in the majority of Covid-19 patients. Impaired MGP activation was linked to accelerated elastic fiber degradation and premorbid vascular calcifications. About fifty percent of total anticoagulant protein S is activated extra-hepatically by vitamin K, and this activation is likely also impaired during Covid-19. Given the fact that procoagulant activity remains intact, this is compatible with the increased thrombogenicity that is frequently observed in severe Covid-19. Based on our findings we expect that increasing MGP and protein S activity by vitamin K administration will considerably improve Covid-19 outcomes. An intervention trial to confirm this hypothesis is currently ongoing.

The test system of series [2] is Covid-19. In words: Ongoing intervention trial of vitamin K administration in Covid-19 patients. It is filed as in vivo. Particulars: twelve Covid-19 patients have received treatment.
From the text: as §1

dp-ucMGP, sequence (P08493 20-96): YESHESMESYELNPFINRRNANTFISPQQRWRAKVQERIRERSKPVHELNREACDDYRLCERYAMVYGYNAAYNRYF

For vitamin K, the “effect on dp-ucMGP levels” value in the series with dp-ucMGP was “reducing effect”. In the series with Covid-19 [1], the ICU admission rate entry is given as “significantly lower” and the mortality result is “significantly lower”. For the same substance, the safety issues result in the series on Covid-19 [2] is “no unexpected safety issues”.

The values above are taken from patent publication US20230233484A1, “USE OF VITAMIN K IN PREVENTING OR COU[…]-19 DISEASE AND DIAGNOSTIC TEST TO ESTIMATE THE RISK OF […] DISEASE OR MORTALITY BY COVID-19” (EMPHYSEMA SOLUTIONS BV, priority 2020, published 2023).
